The record followed here is ChEMBL document CHEMBL1139071, “Diastereoselective synthesis of glycosylated prolines as alpha-glucosidase inhibitors and organocatalyst in asymmetric aldol reaction” (Bioorg Med Chem Lett, 2007).

One experiment is filed under the species Rattus norvegicus. The experiment is described as follows: Inhibition of rat intestinal alpha-glucosidase at 100 uM.
Experiment [1] can be described thus: Inhibition of rat intestinal alpha-glucosidase.

`CCOC(=O)[C@H]1[C@H]([C@@H]2O[C@@H]3OC(C)(C)O[C@@H]3[C@H]2OCc2ccccc2)[C@@H](C(=O)OCC)N[C@H]1c1cccc([N+](=O)[O-])c1`: the inhibition (commonly the relative decrease from the control value, in per cent) in the experiment listed under Rattus norvegicus worked out at 82.7%. Further, in experiment [1], the IC50 (usually the concentration at which inhibition is half-maximal) amounted to 61 µM and the Ki (as a rule, a dissociation constant, usually derived from enzyme kinetics or from competition with a known ligand) turned out to be 33 µM.
In the case of `C[C@H]1O[C@H](O[C@H]2[C@H](O)[C@@H](O)[C@@H](O[C@H]3[C@H](O)[C@@H](O)C(O)O[C@@H]3CO)O[C@@H]2CO)[C@H](O)[C@@H](O)[C@@H]1N[C@H]1C=C(CO)[C@@H](O)[C@H](O)[C@H]1O` (stereo partly drawn), the inhibition in the experiment listed under Rattus norvegicus amounted to 39%.
In the experiment filed under Rattus norvegicus, `CCOC(=O)[C@H]1[C@H](C2O[C@@H]3OC(C)(C)O[C@@H]3[C@H]2OCc2ccccc2)[C@@H](C(=O)OCC)N[C@H]1c1cccc(Cl)c1` (single isomer, unassigned) showed an inhibition of 65.5%. In experiment [1], this compound had an IC50 of 96 µM and a Ki of 79 µM.
For the compound `CCOC(=O)[C@H]1[C@H](C2O[C@@H]3OC(C)(C)O[C@@H]3[C@H]2OCc2ccccc2)[C@@H](C(=O)OCC)N[C@H]1c1ccc(Br)cc1` (single isomer, unassigned), the inhibition in the experiment filed under Rattus norvegicus was 79.3%. In experiment [1], this compound yielded an IC50 of 64 µM and an inhibition constant (Ki) of 36 µM.
Taken in the same sequence, the figures for `CCOC(=O)[C@H]1[C@H](C2O[C@@H]3OC(C)(C)O[C@@H]3[C@H]2OCc2ccccc2)[C@@H](C(=O)OCC)N[C@H]1c1cc(Cl)ccc1Cl` (single isomer, unassigned) were 67.2%, 99 µM and 65 µM.
On to `CCOC(=O)[C@H]1[C@H](C2O[C@@H]3OC(C)(C)O[C@@H]3[C@H]2OCc2ccccc2)[C@@H](C(=O)OCC)N[C@H]1c1ccc(F)cc1` (single isomer, unassigned), for which, in the experiment listed under Rattus norvegicus, the inhibition was determined as 43.1%. Also, in experiment [1], the IC50 amounted to 75 µM and the affinity, expressed as Ki, was 40 µM.
`CCOC(=O)[C@H]1[C@H](C2O[C@@H]3OC(C)(C)O[C@@H]3[C@H]2OC)[C@@H](C(=O)OCC)N[C@H]1c1ccc(Br)cc1` (single isomer, unassigned) yielded an inhibition in the experiment listed under Rattus norvegicus of 26.8%.
For `CCOC(=O)[C@H]1[C@H](C2O[C@@H]3OC(C)(C)O[C@@H]3[C@H]2OCc2ccccc2)[C@@H](C(=O)O)N[C@H]1c1cc(Cl)ccc1Cl` (single isomer, unassigned), the inhibition in the experiment filed under Rattus norvegicus stood at 10.5%.
For the compound `CCOC(=O)[C@H]1[C@H](C2O[C@@H]3OC(C)(C)O[C@@H]3[C@H]2OCc2ccccc2)[C@@H](C(=O)O)N[C@H]1c1ccc(Br)cc1` (single isomer, unassigned), the inhibition in the experiment filed under Rattus norvegicus is 8.1%.
`CCOC(=O)[C@H]1[C@H](C2O[C@@H]3OC(C)(C)O[C@@H]3[C@H]2OCc2ccccc2)[C@@H](C(=O)O)N[C@H]1c1cccc(Cl)c1` (single isomer, unassigned) came in with an inhibition in the experiment listed under Rattus norvegicus of 24.1%.
Compound `CCOC(=O)[C@H]1[C@H](C2O[C@@H]3OC(C)(C)O[C@@H]3[C@H]2OCc2ccccc2)[C@@H](C(=O)O)N[C@H]1c1cccc([N+](=O)[O-])c1` (single isomer, unassigned) registered an inhibition in the experiment listed under Rattus norvegicus of 10.3%.
`CCOC(=O)[C@H]1[C@H](C2O[C@@H]3OC(C)(C)O[C@@H]3[C@H]2OCc2ccccc2)[C@@H](C(=O)O)N[C@H]1c1cccnc1` (single isomer, unassigned): in the experiment filed under Rattus norvegicus, the inhibition was determined as 5.1%.
The same measure, in the same setting: the figure for `CCOC(=O)[C@H]1[C@H](C2O[C@@H]3OC(C)(C)O[C@@H]3[C@H]2OCc2ccccc2)[C@@H](C(=O)OCC)N[C@H]1c1cccnc1` (single isomer, unassigned) is 29.3%.
